The values that follow come from ChEMBL document CHEMBL1781904, “Absolute configuration and selective trypanocidal activity of gaudichaudianic acid enantiomers” (J Nat Prod, 2011).

A word on the IC50: it is the concentration that inhibits the measured activity by half.

In one assay the test system is Trypanosoma cruzi. As to the kind of experiment: Trypanocidal activity against Trypanosoma cruzi Y epimastigotes after 72 hrs by MTT assay. The class given is functional, organism-based.
Conditions: not given
A general note: Formazan colour is commonly taken as a measure of viable cells.
The molecule `CC(C)=CCCC1(C)C=Cc2cc(C(=O)O)cc(CC=C(C)C)c2O1` (racemic; form 1) [GAUDICHAUDIANIC ACID] registered an IC50 of 111 µM.

Molecule `CC(C)=CCCC1(C)C=Cc2cc(C(=O)O)cc(CC=C(C)C)c2O1` (racemic; form 2) [GAUDICHAUDIANIC ACID] had an IC50 of 197 µM.

As to `CC(C)=CCCC1(C)C=Cc2cc(C(=O)O)cc(CC=C(C)C)c2O1` (stereo in doubt; 1) [GAUDICHAUDIANIC ACID], the midpoint of inhibition, the IC50, lay at 55.8 µM.

Staying with this assay, now noted: Trypanosoma cruzi, Y, 72 h.
As for `CC(C)=CCC[C@]1(C)C=Cc2cc(C(=O)O)cc(CC=C(C)C)c2O1`, the IC50 was 224 µM.

Take `CC(C)=CCC[C@@]1(C)C=Cc2cc(C(=O)O)cc(CC=C(C)C)c2O1`: half-maximal inhibition (IC50) was put at 176 µM.

Consider `O=C(Cn1ccnc1[N+](=O)[O-])NCc1ccccc1` [BENZNIDAZOLE], for which inhibition was half-maximal at 37.3 µM (IC50).
